Measured values: patent US12492173B2, “Herbicidal substituted N-tetrazolyl aryl carboxamides” (Bayer Aktiengesellschaft, priority 2019, dated 2025)

Columns and labels:
Assay type in all cases: in vivo
Matricaria inodora = experiment: Pre-emergence herbicidal action, MATIN; details: dosage 320 g/ha, scored visually after 3 weeks vs untreated controls (100% = plants have died)
In short: (§1)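 Seeds sown in sandy loam in pots and covered with soil; compounds formulated as WP or EC were sprayed onto the soil surface as aqueous suspension/emulsion at 600 to 800 l/ha water with 0.2% wetting agent. Greenhouse growth; visual damage scored after 3 weeks versus untreated controls (100% = plants died, 0% = like control).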

Polygonum convolvulus = experiment: Pre-emergence herbicidal action, POLCO; details: dosage 320 g/ha, scored visually after 3 weeks vs untreated controls (100% = plants have died)
In short: as §1

Viola tricolor = experiment: Pre-emergence herbicidal action, VIOTR; details: dosage 320 g/ha, scored visually after 3 weeks vs untreated controls (100% = plants have died)
In short: as §1

Avena fatua = experiment: Post-emergence herbicidal action, AVEFA; parameters: key: % herbicidal action vs untreated; 100 = plants died, 0 = like control
In short: (§2)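 Values are visual estimates of herbicidal action, from 0% (as untreated) to 100% (dead), made about 3 weeks after plants at one-leaf stage in sandy loam were sprayed with the formulated compound.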

Echinochloa crus-galli = experiment: Post-emergence herbicidal action, ECHCG; parameters: key: % herbicidal action vs untreated; 100 = plants died, 0 = like control
In short: as §2

Setaria viridis = experiment: Post-emergence herbicidal action, SETVI; parameters: key: % herbicidal action vs untreated; 100 = plants died, 0 = like control
In short: as §2

| SMILES | herbicidal activity MATIN (Matricaria inodora) | herbicidal activity POLCO (Polygonum convolvulus) | herbicidal activity VIOTR (Viola tricolor) | herbicidal action AVEFA (Avena fatua; post-emergence, dosage 80 g/ha) | herbicidal action ECHCG (Echinochloa crus-galli; post-emergence, dosage 80 g/ha) | herbicidal action SETVI (Setaria viridis; post-emergence, dosage 80 g/ha) | herbicidal action AVEFA (Avena fatua; Dosage 80 g/ha) | herbicidal action ECHCG (Echinochloa crus-galli; Dosage 80 g/ha) | herbicidal action SETVI (Setaria viridis; Dosage 80 g/ha) |
| --- | --- | --- | --- | --- | --- | --- | --- | --- | --- |
| CCSCc1c(C(F)(F)F)ccc(C(=O)Nc2nnnn2CC)c1Cl [Example 2-299] | 100% | 90% | 100% | 100% | 90% | 100% |  |  |  |
| CCn1nnnc1NC(=O)c1ccc(C(F)(F)F)c(C[S+]([O-])CC)c1Cl (stereo not drawn) [Example 2-300] | 100% | 100% | 100% | 100% | 100% | 100% |  |  |  |
| CCn1nnnc1NC(=O)c1ccc(C(F)(F)F)c(CSCCOC)c1Cl [Example 2-305] | 100% | 100% | 100% | 80% | 100% | 100% |  |  |  |
| CCn1nnnc1NC(=O)c1ccc(C(F)(F)F)c(CSCC(F)(F)F)c1Cl [Example 2-311] | 100% | 80% | 100% |  |  |  | 90 | 100 | 100 |
| CCn1nnnc1NC(=O)c1ccc(C(F)(F)F)c(C[S+]([O-])CC2CC2)c1Cl (stereo not drawn) [Example 2-315] | 100% | 90% | 100% |  |  |  | 90 | 100 | 100 |
| CCn1nnnc1NC(=O)c1ccc(C(F)F)c(CSC)c1Cl [Example 2-320] | 100% | 90% | 100% |  |  |  | 90 | 100 | 100 |
| CCn1nnnc1NC(=O)c1ccc(C(F)F)c(CS(C)(=O)=O)c1Cl [Example 2-322] | 90% | 100% | 100% | 80% | 100% | 100% |  |  |  |
| CCSCc1c(C(F)F)ccc(C(=O)Nc2nnnn2CC)c1Cl [Example 2-323] | 100% | 100% | 100% | 100% | 100% | 100% |  |  |  |
| CCn1nnnc1NC(=O)c1ccc(C(F)F)c(C[S+]([O-])CC)c1Cl (stereo not drawn) [Example 2-324] | 100% | 100% | 100% | 100% | 100% | 90% |  |  |  |
| CCn1nnnc1NC(=O)c1ccc(C(F)F)c(CS(=O)(=O)CC)c1Cl [Example 2-325] | 100% | 100% | 100% |  |  |  | 90 | 100 | 100 |
